According to ChEMBL document CHEMBL1151588, “1,2-diaminobenzimidazoles : Selective inhibitors of nitric oxide synthase derived from aminoguanidine” (Bioorg Med Chem Lett, 1995):

Tests used:
[1] = molecular target: T1, Nitric oxide synthase, inducible (Mus musculus, UniProt P29477); assay: Tested to inhibit the conversion of [3H]L-arginine to [3H]L-citrulline catalyzed by inducible NOS from mouse macrophage J774 cells; format: cell-based
T1 sequence (P29477 whole entry): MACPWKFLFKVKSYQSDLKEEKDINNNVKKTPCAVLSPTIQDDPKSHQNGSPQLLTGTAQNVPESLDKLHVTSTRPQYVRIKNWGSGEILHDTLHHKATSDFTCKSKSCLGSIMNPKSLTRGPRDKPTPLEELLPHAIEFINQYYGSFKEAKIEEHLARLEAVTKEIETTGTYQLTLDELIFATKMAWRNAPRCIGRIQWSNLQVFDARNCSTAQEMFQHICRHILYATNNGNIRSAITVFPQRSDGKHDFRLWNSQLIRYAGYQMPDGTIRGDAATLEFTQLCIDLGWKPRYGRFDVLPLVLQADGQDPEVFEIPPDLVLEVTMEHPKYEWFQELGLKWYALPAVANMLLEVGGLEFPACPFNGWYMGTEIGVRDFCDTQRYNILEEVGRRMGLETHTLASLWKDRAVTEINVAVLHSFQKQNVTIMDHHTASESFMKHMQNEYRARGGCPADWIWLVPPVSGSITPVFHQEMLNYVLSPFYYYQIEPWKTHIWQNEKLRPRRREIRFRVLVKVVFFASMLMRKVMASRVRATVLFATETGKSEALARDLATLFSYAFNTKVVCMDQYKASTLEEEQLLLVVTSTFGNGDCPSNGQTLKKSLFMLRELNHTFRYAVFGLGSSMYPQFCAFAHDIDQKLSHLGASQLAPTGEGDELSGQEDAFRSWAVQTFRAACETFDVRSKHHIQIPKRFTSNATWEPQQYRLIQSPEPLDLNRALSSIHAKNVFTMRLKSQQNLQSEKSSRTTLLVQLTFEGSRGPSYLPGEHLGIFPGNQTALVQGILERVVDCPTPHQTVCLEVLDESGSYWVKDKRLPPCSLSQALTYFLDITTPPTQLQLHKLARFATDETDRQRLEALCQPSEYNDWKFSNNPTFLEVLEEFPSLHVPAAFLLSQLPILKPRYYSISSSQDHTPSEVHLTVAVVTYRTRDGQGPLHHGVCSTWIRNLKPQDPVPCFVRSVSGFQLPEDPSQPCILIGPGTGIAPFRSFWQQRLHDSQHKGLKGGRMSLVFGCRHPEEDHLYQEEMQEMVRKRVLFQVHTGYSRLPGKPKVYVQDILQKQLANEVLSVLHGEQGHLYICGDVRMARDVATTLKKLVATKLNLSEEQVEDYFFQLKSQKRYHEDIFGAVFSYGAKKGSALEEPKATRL

[2] = molecular target: T2, Nitric oxide synthase, inducible (Homo sapiens, UniProt P35228); assay: Tested to inhibit the conversion of [3H]L-arginine to [3H]L-citrulline catalyzed by inducible NOS from human DLD-1 cells.; format: cell-based
Nitric oxide synthase 1 [3] = molecular target: T3, Nitric oxide synthase 1 (Rattus norvegicus, UniProt P29476); assay: Tested to inhibit the conversion of [3H]L-arginine to [3H]L-citrulline catalyzed by neuronal NOS from rat cerebellum at concentration below 100 uM; No significant inhibition
Nitric oxide synthase 3 [4] = molecular target: T4, Nitric oxide synthase 3 (Homo sapiens, UniProt P29474); assay: Tested to inhibit the conversion of [3H]L-arginine to [3H]L-citrulline catalyzed by endothelial NOS from human umbilical vein endothelial cells at concentration below 100 uM; No significant inhibition; format: cell-based; settings: endothelial cell
T4 sequence (P29474 whole entry): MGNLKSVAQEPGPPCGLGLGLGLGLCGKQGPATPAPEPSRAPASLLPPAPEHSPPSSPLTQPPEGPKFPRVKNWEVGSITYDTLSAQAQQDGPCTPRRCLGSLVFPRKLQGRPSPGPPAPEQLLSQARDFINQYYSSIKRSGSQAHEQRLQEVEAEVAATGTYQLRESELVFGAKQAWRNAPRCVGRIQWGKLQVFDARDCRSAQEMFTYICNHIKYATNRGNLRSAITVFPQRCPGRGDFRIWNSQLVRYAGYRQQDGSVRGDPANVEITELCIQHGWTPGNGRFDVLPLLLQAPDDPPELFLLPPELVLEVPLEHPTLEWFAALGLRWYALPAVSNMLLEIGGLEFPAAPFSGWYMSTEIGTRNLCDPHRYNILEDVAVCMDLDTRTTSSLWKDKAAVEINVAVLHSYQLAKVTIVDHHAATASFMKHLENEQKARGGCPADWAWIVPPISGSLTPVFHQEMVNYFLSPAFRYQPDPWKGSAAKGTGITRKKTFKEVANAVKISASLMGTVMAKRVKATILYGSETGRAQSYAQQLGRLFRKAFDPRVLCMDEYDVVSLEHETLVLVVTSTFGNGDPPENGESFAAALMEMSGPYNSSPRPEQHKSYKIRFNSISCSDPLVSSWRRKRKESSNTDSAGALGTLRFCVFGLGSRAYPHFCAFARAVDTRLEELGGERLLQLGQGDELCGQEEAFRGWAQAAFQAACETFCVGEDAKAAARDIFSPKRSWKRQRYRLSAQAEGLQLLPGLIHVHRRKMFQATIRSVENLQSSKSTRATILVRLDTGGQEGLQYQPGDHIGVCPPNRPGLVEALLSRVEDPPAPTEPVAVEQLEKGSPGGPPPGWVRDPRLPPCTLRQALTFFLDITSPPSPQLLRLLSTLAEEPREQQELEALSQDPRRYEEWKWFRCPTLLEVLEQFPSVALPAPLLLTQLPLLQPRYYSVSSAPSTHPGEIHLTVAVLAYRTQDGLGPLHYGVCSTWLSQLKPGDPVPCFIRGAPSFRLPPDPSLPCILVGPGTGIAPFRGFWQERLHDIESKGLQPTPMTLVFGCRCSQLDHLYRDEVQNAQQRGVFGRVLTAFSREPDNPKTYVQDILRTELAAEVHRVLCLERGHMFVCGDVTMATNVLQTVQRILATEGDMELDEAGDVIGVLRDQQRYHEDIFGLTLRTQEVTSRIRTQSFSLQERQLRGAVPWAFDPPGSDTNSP

Nitric oxide synthase 1 [5] = molecular target: T3, Nitric oxide synthase 1; assay: Tested to inhibit the conversion of [3H]L-arginine to [3H]L-citrulline catalyzed by neuronal NOS from rat cerebellum.; format: tissue-based
[6] = molecular target: T2, Nitric oxide synthase, inducible; assay: Tested to inhibit the conversion of [3H]-L-arginine to [3H]L-citrulline catalyzed by inducible NOS from human DLD-1 cells at concentration below 100 uM; No significant inhibition; format: cell-based
Nitric oxide synthase 3 [7] = molecular target: T4, Nitric oxide synthase 3; assay: Tested to inhibit the conversion of [3H]L-arginine to [3H]L-citrulline catalyzed by endothelial NOS from human umbilical vein endothelial cells; No significant inhibition; format: cell-based; settings: endothelial cell
[8] = molecular target: T1, Nitric oxide synthase, inducible; assay: Tested to inhibit the conversion of [3H]L-arginine to [3H]L-citrulline catalyzed by inducible NOS from mouse macrophage J774 cells at concentration below 100 uM; No significant inhibition; format: cell-based

T3 sequence (P29476 whole entry): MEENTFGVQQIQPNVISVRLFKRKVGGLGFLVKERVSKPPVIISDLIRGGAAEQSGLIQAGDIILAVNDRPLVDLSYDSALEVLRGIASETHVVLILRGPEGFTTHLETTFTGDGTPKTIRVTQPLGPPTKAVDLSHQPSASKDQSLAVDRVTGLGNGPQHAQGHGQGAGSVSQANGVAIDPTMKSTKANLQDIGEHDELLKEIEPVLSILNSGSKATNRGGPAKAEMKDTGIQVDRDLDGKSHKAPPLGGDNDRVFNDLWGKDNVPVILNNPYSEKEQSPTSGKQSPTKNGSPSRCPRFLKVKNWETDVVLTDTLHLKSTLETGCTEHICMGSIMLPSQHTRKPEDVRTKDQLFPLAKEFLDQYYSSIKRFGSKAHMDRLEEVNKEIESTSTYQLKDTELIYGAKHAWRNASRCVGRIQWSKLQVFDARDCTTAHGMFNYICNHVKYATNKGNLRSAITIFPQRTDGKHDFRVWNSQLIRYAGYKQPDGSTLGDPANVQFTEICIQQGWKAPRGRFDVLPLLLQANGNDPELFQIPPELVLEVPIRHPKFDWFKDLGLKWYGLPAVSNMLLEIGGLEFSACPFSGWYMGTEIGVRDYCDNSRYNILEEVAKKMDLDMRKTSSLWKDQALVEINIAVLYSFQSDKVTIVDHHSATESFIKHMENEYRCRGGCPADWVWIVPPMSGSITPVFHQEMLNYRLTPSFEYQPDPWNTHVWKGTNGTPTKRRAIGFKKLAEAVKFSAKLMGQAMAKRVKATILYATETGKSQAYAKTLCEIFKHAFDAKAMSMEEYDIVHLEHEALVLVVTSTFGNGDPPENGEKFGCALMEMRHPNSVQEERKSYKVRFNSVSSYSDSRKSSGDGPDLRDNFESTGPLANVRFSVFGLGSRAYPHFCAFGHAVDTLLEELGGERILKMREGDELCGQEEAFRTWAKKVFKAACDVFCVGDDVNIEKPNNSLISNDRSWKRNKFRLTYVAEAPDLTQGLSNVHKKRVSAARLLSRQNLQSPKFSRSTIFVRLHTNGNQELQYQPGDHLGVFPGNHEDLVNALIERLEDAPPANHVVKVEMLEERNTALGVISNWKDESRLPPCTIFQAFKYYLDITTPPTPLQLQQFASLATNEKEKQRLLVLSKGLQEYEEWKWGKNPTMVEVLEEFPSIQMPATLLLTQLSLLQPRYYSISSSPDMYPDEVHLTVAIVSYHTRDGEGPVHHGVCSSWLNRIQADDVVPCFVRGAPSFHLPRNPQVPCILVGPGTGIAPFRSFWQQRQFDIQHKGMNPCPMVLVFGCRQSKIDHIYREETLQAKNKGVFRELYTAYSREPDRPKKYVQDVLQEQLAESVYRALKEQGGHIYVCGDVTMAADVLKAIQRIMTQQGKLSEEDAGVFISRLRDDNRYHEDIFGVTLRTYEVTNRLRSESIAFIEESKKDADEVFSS
T2 sequence (P35228 whole entry): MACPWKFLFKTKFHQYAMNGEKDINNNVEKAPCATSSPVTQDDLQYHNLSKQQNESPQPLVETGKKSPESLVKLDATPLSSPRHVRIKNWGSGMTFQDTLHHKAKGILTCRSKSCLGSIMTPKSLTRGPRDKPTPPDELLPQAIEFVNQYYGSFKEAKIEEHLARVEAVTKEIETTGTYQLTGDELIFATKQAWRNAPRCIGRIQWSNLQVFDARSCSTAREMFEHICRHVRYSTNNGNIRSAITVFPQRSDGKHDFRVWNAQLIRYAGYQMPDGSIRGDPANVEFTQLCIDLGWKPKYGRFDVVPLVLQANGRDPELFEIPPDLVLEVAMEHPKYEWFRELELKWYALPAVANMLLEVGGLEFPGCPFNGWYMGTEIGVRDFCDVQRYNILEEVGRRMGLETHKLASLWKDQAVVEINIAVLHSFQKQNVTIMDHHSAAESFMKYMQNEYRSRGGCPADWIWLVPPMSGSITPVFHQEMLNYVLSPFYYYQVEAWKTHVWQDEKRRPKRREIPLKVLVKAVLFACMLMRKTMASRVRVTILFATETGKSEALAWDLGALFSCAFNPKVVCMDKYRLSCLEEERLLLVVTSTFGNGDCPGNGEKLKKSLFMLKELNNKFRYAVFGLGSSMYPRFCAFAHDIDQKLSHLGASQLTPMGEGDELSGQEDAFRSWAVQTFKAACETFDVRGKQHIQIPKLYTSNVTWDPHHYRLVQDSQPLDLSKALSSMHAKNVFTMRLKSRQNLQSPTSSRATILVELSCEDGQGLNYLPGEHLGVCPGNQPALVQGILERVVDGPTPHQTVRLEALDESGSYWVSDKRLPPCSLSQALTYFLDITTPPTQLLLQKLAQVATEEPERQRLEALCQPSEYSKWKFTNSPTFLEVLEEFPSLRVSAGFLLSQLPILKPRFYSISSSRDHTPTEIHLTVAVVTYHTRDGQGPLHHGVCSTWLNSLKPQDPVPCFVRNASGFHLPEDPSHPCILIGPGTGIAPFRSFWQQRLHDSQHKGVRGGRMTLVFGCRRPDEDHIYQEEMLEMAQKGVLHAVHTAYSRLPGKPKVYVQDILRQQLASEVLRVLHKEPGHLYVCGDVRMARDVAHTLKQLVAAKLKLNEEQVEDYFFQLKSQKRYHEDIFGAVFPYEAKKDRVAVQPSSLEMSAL

| SMILES | IC50 [1] [µM] | IC50 [2] [µM] | IC50 (Nitric oxide synthase 1 [3]) | IC50 (Nitric oxide synthase 3 [4]) | IC50 (Nitric oxide synthase 1 [5]) [µM] | IC50 [6] | IC50 (Nitric oxide synthase 3 [7]) | IC50 [8] |
| --- | --- | --- | --- | --- | --- | --- | --- | --- |
| O=[N+]([O-])c1cccc2cn[nH]c12 [7-NITROINDAZOLE] | 20 | 24 |  |  |  |  |  |  |
| N=C(N)NN [PIMAGEDINE] | 9 | 54 | Not Active | Not Active |  |  |  |  |
| CNn1c(N)nc2ccccc21 |  |  |  |  | 5.8 | Not Active | Not Active | Not Active |
| Nc1nc2ccccc2n1N | 31 | 25 |  | Not Active | 77 |  |  |  |
